Values of other authors in patent US20050118222A1, “Product to combat ticks and the process for the product's preparation” (priority 2002, published 2005).

What was measured:
[1] = in vivo
[2] = tested on: manure-processing insect and coleopterous flora in the soil

## (4″R)-4″-epi(Acetylamino)-4″-deoxyavermectin B1 [Eprinomectin]
In vivo
  applied drug eliminated through the milk: 0.1%
Versus ivermectin or moxidectin
  elimination through the milk, times less compared to ivermectin or moxidectin: 50 times
[1]
  elimination through dung: 85%
[2]
  effect on manure-processing insect and coleopterous flora in the soil: does not affect
